From ChEMBL document CHEMBL4834472 (J Med Chem, 2021)
The source made the active and inactive calls. No cut-off for these calls is given here.

Legend:
[1] = target: CDK9/cyclin T1 (Homo sapiens, UniProt P50750); experiment: Inhibition of CDK9/cyclin T1 (unknown origin) in presence of [32P]gammaATP by image analyser; type: protein-complex assay
[2] = system: MOLM-13; experiment: Antiproliferative activity against human MOLM-13 cells assessed as cell death measured after 72 hrs by resazurin dye based assay; type: functional; details: MOLM-13, 72 h
[3] = target: T1, Receptor-type tyrosine-protein kinase FLT3 (Homo sapiens, UniProt P36888, ITD)
[4] = system: SEM cells; experiment: Antiproliferative activity against human SEM cells assessed as cell death measured after 72 hrs by resazurin dye based assay; type: functional
[5] = system: BaF3; experiment: Antiproliferative activity against mouse BaF3 cells harboring FLt3 ITD mutant assessed as cell death measured after 72 hrs by resazurin dye based assay; type: functional; details: BaF3, 72 h
[6] = target: Receptor-type tyrosine-protein kinase FLT3 (Homo sapiens) (UniProt P36888); experiment: Inhibition of FLT3 in human MV4-11 cells assessed as STAT5 phosphorylation at Y694 at 20 to 100 nM incubated for 1 hrs by Western blot analysis; type: cell-based; details: dose 20-100 nM
[7] = system: MOLM-14; experiment: Antiproliferative activity against human MOLM-14 cells harboring F691L mutant assessed as cell death measured after 72 hrs by resazurin dye based assay; type: functional; details: MOLM-14, 72 h
[8] = target: Maternal embryonic leucine zipper kinase (Homo sapiens) (UniProt Q14680); experiment: Inhibition of MELK (unknown origin) assessed as residual activity at 500 nM
Chain of Maternal embryonic leucine zipper kinase (Homo sapiens) (Q14680 whole entry, looked up): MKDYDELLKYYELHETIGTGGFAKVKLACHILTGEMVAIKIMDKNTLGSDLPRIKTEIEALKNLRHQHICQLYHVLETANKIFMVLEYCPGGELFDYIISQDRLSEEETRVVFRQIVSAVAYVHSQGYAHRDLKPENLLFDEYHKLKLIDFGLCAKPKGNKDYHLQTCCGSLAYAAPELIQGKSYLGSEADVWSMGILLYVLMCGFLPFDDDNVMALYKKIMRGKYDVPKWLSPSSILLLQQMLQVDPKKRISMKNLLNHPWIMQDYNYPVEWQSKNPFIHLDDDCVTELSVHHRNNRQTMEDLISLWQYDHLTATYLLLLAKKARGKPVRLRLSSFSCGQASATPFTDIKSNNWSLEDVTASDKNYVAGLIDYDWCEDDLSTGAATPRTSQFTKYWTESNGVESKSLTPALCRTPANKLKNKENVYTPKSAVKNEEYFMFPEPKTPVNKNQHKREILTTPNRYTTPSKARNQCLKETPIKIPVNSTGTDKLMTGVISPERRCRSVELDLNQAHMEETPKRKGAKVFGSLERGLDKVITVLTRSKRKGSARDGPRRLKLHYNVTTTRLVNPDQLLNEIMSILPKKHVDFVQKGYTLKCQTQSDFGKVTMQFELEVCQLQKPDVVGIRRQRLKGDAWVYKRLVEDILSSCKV

[9] = system: MOLM-14; experiment: Antiproliferative activity against human MOLM-14 cells assessed as cell death measured after 72 hrs by resazurin dye based assay; type: functional; details: MOLM-14, 72 h
[10] = target: Leucine-rich repeat serine/threonine-protein kinase 2 (Homo sapiens) (UniProt Q5S007); experiment: Inhibition of LRRK2 (unknown origin) assessed as residual activity at 500 nM
Chain of Leucine-rich repeat serine/threonine-protein kinase 2 (Homo sapiens) (Q5S007 whole entry): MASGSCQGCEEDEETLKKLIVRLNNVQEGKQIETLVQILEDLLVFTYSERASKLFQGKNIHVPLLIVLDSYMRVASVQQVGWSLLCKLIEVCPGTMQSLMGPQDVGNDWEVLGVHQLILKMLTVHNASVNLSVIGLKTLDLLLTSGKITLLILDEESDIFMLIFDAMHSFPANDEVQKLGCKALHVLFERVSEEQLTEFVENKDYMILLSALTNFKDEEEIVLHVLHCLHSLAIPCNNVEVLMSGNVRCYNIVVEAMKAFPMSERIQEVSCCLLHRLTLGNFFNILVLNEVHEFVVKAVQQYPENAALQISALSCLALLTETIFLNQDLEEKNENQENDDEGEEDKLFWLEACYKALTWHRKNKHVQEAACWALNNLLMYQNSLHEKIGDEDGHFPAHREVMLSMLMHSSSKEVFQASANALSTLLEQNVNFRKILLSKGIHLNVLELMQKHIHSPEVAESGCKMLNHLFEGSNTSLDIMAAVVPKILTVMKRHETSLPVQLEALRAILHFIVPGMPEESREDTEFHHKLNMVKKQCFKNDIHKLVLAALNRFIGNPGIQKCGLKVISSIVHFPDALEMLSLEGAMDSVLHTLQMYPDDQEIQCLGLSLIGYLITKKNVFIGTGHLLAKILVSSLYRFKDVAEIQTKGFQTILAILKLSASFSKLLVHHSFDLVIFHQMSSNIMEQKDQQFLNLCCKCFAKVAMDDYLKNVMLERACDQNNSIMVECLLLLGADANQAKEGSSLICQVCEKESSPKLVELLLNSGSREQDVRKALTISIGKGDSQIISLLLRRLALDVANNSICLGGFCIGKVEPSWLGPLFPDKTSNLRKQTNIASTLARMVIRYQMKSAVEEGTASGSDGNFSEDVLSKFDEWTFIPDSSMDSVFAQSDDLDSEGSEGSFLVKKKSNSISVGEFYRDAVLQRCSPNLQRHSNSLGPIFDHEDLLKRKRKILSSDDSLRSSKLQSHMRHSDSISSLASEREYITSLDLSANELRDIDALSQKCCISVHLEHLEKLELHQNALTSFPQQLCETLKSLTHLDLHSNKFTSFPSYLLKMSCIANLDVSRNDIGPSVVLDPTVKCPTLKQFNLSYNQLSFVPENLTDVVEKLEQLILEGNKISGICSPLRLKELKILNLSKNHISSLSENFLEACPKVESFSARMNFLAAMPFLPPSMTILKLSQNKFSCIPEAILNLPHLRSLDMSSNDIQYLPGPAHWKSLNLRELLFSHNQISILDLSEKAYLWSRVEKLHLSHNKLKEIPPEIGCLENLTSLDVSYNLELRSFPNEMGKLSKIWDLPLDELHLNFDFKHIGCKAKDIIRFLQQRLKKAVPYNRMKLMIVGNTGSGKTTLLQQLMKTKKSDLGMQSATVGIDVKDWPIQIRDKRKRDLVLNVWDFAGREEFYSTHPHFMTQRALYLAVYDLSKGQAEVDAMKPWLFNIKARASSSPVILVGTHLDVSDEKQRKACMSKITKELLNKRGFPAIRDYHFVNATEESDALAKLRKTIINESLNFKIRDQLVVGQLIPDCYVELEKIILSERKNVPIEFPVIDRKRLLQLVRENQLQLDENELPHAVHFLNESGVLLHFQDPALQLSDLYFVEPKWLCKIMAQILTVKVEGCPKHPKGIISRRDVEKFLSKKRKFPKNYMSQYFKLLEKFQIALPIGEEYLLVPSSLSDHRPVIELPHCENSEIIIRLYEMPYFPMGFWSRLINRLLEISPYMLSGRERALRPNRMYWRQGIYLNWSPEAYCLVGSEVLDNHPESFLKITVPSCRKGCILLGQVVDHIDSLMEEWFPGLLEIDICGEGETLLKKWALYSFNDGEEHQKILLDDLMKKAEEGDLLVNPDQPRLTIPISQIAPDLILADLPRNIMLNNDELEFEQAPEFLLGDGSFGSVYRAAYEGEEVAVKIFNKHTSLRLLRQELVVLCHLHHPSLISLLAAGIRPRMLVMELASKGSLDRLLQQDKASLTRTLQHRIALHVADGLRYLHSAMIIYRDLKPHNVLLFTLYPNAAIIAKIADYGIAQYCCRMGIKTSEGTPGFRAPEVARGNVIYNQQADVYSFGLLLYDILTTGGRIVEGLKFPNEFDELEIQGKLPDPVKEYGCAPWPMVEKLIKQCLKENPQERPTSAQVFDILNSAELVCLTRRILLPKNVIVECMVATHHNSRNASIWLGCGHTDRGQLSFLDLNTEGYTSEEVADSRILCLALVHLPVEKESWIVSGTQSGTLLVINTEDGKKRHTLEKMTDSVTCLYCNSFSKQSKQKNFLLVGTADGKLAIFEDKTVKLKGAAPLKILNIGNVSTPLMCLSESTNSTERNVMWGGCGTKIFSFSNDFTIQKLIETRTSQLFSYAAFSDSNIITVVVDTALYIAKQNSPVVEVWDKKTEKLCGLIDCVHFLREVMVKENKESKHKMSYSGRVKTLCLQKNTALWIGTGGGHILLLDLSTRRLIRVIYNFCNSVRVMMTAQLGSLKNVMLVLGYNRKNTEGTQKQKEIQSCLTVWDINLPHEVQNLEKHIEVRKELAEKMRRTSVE

[11] = system: K562; experiment: cells; details: Homo sapiens, K562, 72 h
Description: Antiproliferative activity against human K562 cells assessed as cell death measured after 72 hrs by resazurin dye based assay

[12] = target: Cyclin-dependent kinase 4/cyclin D1 (Homo sapiens, UniProt P11802); experiment: Inhibition of CDK4/cyclin D1 (unknown origin) in presence of [32P]gammaATP by image analyser; type: protein-complex assay
[13] = system: MV4-11; experiment: Antitumor activity against human MV4-11 cells xenografted in NRG mouse assessed as tumor growth inhibition treated at 50 mg/kg, po via gavage daily for 5 days in a week after 15 days of implantation measured after 21 days by luciferase based relative to control; type: functional; details: MV4-11, po, 504 h, time 21 day
[14] = target: CDK2/Cyclin A2 (Homo sapiens, UniProt P24941); experiment: Inhibition of CDK2/cyclin A2 (unknown origin) in presence of [32P]gammaATP by image analyser; type: protein-complex assay
[15] = target: Receptor-type tyrosine-protein kinase FLT3 (Homo sapiens) (UniProt P36888); experiment: Inhibition of FLT3 in human MV4-11 cells assessed as ERK1/2 phosphorylation at 20 to 100 nM incubated for 1 hrs by Western blot analysis; type: cell-based; details: dose 20-100 nM
[16] = system: MV4-11; experiment: Induction of apoptosis in human MV4-11 cells assessed as effect on Bcl2 level at 100 nM incubated for 24 hrs by Western blot analysis; type: functional, cell-based
[17] = system: Receptor-type tyrosine-protein kinase FLT3 (Homo sapiens), P36888 [D835Y]; experiment: Inhibition of FLT3 D835Y (unknown origin) assessed as residual activity at 500 nM
[18] = target: T1, Receptor-type tyrosine-protein kinase FLT3; experiment: Binding affinity to human partial length FLT3 ITD mutant expressed in bacterial expression system by KdELECT Discover assay
[19] = system: CCRF-CEM; experiment: Antiproliferative activity against human CCRF-CEM cells assessed as cell death measured after 72 hrs by resazurin dye based assay; type: functional
[20] = system: MV4-11; experiment: Induction of apoptosis in human MV4-11 cells assessed as caspase 3 activation using fluorescent substrate Ac-DEVD-AMC at 100 nM incubated for 24 hrs by Western blot analysis; type: functional, cell-based
[21] = target: Receptor-type tyrosine-protein kinase FLT3 (Homo sapiens, UniProt P36888, F691L); experiment: Binding affinity to human partial length FLT3 ITD F691L mutant expressed in mammalian expression system by KdELECT Discover assay
[22] = system: MV4-11; experiment: Induction of apoptosis in human MV4-11 cells assessed as caspase 7 activation using fluorescent substrate Ac-DEVD-AMC at 100 nM incubated for 24 hrs by Western blot analysis; type: functional, cell-based
[23] = target: Dual specificity protein kinase CLK1 (Homo sapiens) (UniProt P49759); experiment: Inhibition of CLK1 (unknown origin) assessed as residual activity at 500 nM
[24] = system: MV4-11; experiment: Induction of apoptosis in human MV4-11 cells assessed as decrease in MCL1 level at 100 nM incubated for 24 hrs by Western blot analysis; type: functional, cell-based
[25] = system: MV4-11; experiment: Induction of apoptosis in human MV4-11 cells assessed as increase in cleaved PARP1 level at 100 nM incubated for 24 hrs by Western blot analysis; type: functional, cell-based
[26] = target: Dual specificity tyrosine-phosphorylation-regulated kinase 1B (Homo sapiens) (UniProt Q9Y463); experiment: Inhibition of DYRK1B (unknown origin) assessed as residual activity at 500 nM
Chain of Dual specificity tyrosine-phosphorylation-regulated kinase 1B (Homo sapiens) (Q9Y463 whole entry, looked up): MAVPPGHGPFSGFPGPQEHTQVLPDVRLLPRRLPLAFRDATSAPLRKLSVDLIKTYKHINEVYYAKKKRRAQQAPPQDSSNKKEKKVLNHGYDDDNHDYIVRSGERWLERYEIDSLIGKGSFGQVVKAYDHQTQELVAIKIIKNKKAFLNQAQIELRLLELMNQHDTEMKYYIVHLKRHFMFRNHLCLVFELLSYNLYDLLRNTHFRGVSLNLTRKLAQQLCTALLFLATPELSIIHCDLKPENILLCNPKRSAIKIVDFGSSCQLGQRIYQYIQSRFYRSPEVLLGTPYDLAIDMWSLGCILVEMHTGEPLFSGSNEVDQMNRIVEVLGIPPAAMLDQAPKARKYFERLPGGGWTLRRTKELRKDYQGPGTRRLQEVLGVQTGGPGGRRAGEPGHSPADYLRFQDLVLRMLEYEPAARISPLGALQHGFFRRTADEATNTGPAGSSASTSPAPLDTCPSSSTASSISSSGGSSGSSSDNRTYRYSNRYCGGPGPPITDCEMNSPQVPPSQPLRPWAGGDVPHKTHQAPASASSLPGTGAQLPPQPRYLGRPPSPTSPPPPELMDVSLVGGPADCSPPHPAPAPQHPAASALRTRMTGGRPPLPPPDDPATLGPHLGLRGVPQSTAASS

[27] = target: CDK2/Cyclin A1 (Homo sapiens, UniProt P24941); type: protein-complex assay
Description: Inhibition of CDK2/Cyclin A1 (unknown origin) at 1 uM using histone H1 as substrate preincubated for 20 mins followed by 33P-ATP addition and measured after 2 hrs by filter binding method

[28] = target: Cyclin-dependent kinase 1/cyclin B1 (Homo sapiens, UniProt P06493); experiment: Inhibition of CDK1/cyclin B1 (unknown origin) in presence of [32P]gammaATP by image analyser; type: protein-complex assay
[29] = system: U-937; experiment: Antiproliferative activity against human U-937 cells assessed as cell death measured after 72 hrs by resazurin dye based assay; type: functional; details: U-937, 72 h
[30] = target: Cyclin-dependent kinase 2/cyclin E1 (Homo sapiens, UniProt P24941); experiment: Inhibition of CDK2/cyclin E1 (unknown origin) in presence of [32P]gammaATP by image analyser; type: protein-complex assay
[31] = target: Receptor-type tyrosine-protein kinase FLT3 (Homo sapiens) (UniProt P36888); experiment: Inhibition of FLT3 autophosphorylation in human MV4-11 cells at 20 to 100 nM incubated for 1 hrs by Western blot analysis; type: cell-based; details: dose 20-100 nM
[32] = target: NT-3 growth factor receptor (Homo sapiens) (UniProt Q16288); experiment: Inhibition of TRKC (unknown origin) assessed as residual activity at 500 nM
[33] = system: THP-1; experiment: Antiproliferative activity against human THP-1 cells assessed as cell death measured after 72 hrs by resazurin dye based assay; type: functional; details: THP-1, 72 h

Chain of CDK9/cyclin T1 (O60563 whole entry): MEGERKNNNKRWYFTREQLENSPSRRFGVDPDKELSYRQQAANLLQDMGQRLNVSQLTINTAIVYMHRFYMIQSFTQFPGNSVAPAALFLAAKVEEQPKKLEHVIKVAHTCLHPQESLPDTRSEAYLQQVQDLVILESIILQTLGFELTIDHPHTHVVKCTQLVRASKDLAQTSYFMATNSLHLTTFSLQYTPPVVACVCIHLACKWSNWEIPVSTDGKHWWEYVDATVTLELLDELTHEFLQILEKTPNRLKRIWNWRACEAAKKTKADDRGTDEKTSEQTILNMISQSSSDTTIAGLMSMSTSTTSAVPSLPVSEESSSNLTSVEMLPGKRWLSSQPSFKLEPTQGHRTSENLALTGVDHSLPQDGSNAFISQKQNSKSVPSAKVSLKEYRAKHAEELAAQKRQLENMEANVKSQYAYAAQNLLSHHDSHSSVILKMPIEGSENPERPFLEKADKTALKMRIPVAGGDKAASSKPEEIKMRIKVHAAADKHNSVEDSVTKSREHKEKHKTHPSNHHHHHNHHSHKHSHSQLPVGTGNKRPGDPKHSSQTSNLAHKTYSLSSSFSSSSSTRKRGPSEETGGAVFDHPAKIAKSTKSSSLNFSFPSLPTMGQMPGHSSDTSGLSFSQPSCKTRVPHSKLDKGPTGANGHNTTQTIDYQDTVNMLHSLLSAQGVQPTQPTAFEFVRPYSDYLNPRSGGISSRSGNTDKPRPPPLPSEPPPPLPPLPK
Chain of CDK9/cyclin T1 (P50750 whole entry): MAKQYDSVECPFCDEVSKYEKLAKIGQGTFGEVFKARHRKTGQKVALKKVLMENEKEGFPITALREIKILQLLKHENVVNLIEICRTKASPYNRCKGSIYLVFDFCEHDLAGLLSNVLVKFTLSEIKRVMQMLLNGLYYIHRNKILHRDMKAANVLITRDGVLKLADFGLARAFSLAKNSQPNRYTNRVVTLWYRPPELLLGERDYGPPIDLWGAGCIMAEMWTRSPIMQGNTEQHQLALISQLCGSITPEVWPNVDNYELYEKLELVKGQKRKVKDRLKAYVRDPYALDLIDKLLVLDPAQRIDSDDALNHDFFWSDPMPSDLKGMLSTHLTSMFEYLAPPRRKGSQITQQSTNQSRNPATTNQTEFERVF

For Cc1n[nH]c2ccc3nc(-c4c[nH]nc4C(F)(F)F)c4c(c3c12)CCCC4, which IC50 [1] is on record?
The IC50 was > 1000 nM.

And the IC50 [2]?
The IC50 was 68 nM.

And the IC50 [3]?
Its IC50 is 6 nM.

What about the IC50 [4] of the same compound?
The IC50 was 422 nM.

What about the IC50 [5] of the same compound?
Its IC50 is 62 nM.

And the inhibition [6]?
Its inhibition is “Active”.

What about the IC50 [7] of the same compound?
The IC50 was 53 nM.

And the Activity [8]?
The Activity was 4%.

And the IC50 [9]?
Its IC50 is 26 nM.

And the Activity [10]?
The Activity was 4%.

What about the IC50 [11] of the same compound?
The IC50 was 9820 nM.

What about the IC50 [12] of the same compound?
Its IC50 is > 1000 nM.

What about the inhibition in vivo at 50 mg/kg [13] of the same compound?
Its inhibition in vivo at 50 mg/kg is 90%.

And the IC50 [14]?
The IC50 was 430 nM.

What about the inhibition [15] of the same compound?
Its inhibition is “inactive”.

And the Activity [16]?
The Activity was “Active”.

And the Activity [17]?
The Activity was < 2.5%.

And the Kd [18]?
The Kd was 1.6 nM.

And the IC50 [19]?
The IC50 was 6510 nM.

What about the Activity [20] of the same compound?
Its Activity is “Active”.

And the Kd [21]?
The Kd was 1.3 nM.

What about the Activity [22] of the same compound?
Its Activity is “Active”.

And the Activity [23]?
The Activity was 4%.

And the Activity [24]?
The Activity was “Active”.

What about the Activity [25] of the same compound?
The Activity was “Active”.

And the Activity [26]?
The Activity was 4%.

And the IC50 [27]?
Its IC50 is 430 nM.

What about the IC50 [28] of the same compound?
The IC50 was 157 nM.

What about the IC50 [29] of the same compound?
Its IC50 is 2880 nM.

And the IC50 [30]?
Its IC50 is 258 nM.

What about the inhibition [31] of the same compound?
Its inhibition is “Active”.

And the Activity [32]?
Its Activity is 4%.

What about the IC50 [33] of the same compound?
Its IC50 is 6800 nM.
